# Tests used:
# [1] = target: amino acid substituted PPO enzyme R128A (Amaranthus tuberculatus, UniProt Q0NZW9, R128A); test: biochemical
# [2] = target: amino acid substituted PPO enzyme R128L (Amaranthus tuberculatus, UniProt Q0NZW9, R128L); test: biochemical
# [3] = target: amino acid substituted PPO enzyme dG210 (Amaranthus tuberculatus, UniProt Q0NZW9, DEL211-211, form not given); format: biochemical
# [4] = target: amino acid substituted PPO enzyme L397D (Amaranthus tuberculatus, UniProt Q0NZW9, L397D); test: biochemical
# [5] = target: amino acid substituted PPO enzyme L397N (Amaranthus tuberculatus, UniProt Q0NZW9, L397N); test: biochemical
# [6] = target: amino acid substituted PPO enzyme F420M (Amaranthus tuberculatus, UniProt Q0NZW9, F420M); test: biochemical
# [7] = target: amino acid substituted PPO enzyme F420I (Amaranthus tuberculatus, UniProt Q0NZW9, F420I); test: biochemical
# [8] = target: amino acid substituted PPO enzyme F420L (Amaranthus tuberculatus, UniProt Q0NZW9, F420L); test: biochemical
# [9] = target: amino acid substituted PPO enzyme F420V (Amaranthus tuberculatus, UniProt Q0NZW9, F420V); test: biochemical
# [10] = target: amino acid substituted PPO enzyme R128A, F420M (Amaranthus tuberculatus, UniProt Q0NZW9, F420M/R128A); test: biochemical
# [11] = target: amino acid substituted PPO enzyme R128A, F420I (Amaranthus tuberculatus, UniProt Q0NZW9, F420I/R128A); test: biochemical
# [12] = target: amino acid substituted PPO enzyme R128A, F420L (Amaranthus tuberculatus, UniProt Q0NZW9, F420L/R128A); test: biochemical
smiles,measurement,setting,value
C#CCN1C(=O)C(F)(F)Oc2cc(F)c(-n3c(=O)n(C)c(=S)n(C)c3=O)cc21 [benzoxazinone 1.a.35],IC50,[1],0.14 nM
same,IC50,[2],0.773 nM
same,IC50,[3],2.12 nM
same,IC50,[4],0.272 nM
same,IC50,[5],0.235 nM
same,IC50,[6],0.275 nM
same,IC50,[7],0.495 nM
same,IC50,[8],0.993 nM
same,IC50,[9],2.45 nM
same,IC50,[10],6.24 nM
same,IC50,[11],19.8 nM
same,IC50,[12],23.8 nM
